Reference: BindingDB's records for doi:10.1021/cb500177c (University of Bern, 2014)

How the values were obtained:
[1] = biological target: Cannabinoid receptor 2 (Homo sapiens, UniProt P34972); test: CB1 & 2 Binding Assays; details: pH 7.4; 30 °C
[2] = biological target: Cannabinoid receptor 1 (Homo sapiens, UniProt P21554); test: CB1 & 2 Binding Assays; details: pH 7.4; 30 °C
[3] = biological target: T1, Fatty-acid amide hydrolase 1 (Homo sapiens, UniProt O00519); test: FAAH Activity Assay; details: pH 7.6; 37 °C
T1 sequence (O00519 whole entry): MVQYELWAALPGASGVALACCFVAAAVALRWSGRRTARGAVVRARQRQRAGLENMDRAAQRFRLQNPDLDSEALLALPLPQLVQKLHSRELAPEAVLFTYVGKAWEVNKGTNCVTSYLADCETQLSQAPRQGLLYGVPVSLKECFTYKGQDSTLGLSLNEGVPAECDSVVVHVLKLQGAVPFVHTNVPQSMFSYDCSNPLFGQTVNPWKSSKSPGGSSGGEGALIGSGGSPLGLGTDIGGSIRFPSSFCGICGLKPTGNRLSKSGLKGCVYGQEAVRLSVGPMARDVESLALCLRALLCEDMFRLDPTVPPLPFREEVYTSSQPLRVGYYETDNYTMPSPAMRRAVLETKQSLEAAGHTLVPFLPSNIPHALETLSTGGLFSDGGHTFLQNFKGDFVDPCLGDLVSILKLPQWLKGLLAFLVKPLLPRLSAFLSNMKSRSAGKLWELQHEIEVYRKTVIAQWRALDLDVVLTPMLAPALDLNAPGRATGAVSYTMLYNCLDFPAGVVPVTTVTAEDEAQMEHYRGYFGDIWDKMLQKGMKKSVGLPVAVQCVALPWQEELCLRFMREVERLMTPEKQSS
Description: In this assay, 0.05 Units of hFAAH was pre-incubated for 30 min at 37 C with 2 uL of 11a, 11b, 11f at different concentrations (0.01 - 100 uM) or vehicin 196 uL of assay buffer (10 mM Tris-HCl, 1 mM EDTA (pH 7.6) and 0.1% w/v fatty acid-free BSA). 2 uL of AEA/[3H]-AEA mixture was added to the solution (final concenttion in assay was 10 nM) and incubated for 15 min at 37 C.

Sequence of Cannabinoid receptor 1 (P21554 whole entry): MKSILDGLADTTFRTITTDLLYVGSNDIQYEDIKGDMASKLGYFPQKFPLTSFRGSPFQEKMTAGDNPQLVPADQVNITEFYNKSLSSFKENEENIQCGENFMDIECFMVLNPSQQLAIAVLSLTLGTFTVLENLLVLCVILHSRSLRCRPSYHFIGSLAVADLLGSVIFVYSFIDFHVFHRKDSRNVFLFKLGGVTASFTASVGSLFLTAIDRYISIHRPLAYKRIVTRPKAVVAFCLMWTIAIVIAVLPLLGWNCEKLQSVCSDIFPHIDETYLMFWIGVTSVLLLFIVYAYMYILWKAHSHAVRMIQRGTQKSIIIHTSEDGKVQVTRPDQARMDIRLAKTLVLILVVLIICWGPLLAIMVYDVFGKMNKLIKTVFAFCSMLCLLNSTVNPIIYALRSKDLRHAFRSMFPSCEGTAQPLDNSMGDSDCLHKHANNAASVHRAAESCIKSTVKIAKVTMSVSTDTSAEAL
Sequence of Cannabinoid receptor 2 (P34972 whole entry): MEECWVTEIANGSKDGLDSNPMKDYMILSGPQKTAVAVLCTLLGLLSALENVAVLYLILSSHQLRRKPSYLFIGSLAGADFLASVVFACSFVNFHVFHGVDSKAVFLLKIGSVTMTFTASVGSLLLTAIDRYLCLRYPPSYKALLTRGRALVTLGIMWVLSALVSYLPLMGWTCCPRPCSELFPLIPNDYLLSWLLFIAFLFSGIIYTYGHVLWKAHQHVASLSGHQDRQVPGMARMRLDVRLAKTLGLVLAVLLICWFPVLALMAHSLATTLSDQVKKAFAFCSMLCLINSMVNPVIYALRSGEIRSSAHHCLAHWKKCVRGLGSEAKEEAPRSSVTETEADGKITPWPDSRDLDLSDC

Row | Structure (SMILES) | Ki [1] [nM] | Ki [2] [µM] | IC50 [3] [µM]
1 | CCCC(C)(C)c1ccc2c(c1)OC(C)(C)[C@@H]1CC=C(C)C[C@@H]21 | 13 | – | –
2 | C=C(C)CC[C@@H]1[C@H](C(=C)CC/C=C/C(=O)NCc2ccc(O)c(OC)c2)CC1(C)C [(E)-6-((1R,2R)-3,3-Dimethyl-2-(3-methylbut-3-enyl)cyclobutyl)-N-(4-hydroxy-3-methoxybenzyl)hepta-2,6-dienamide (11e)] | > 10000 | > 10 | 7.1
3 | C=C(C)CC[C@@H]1[C@H](C(=C)CC/C=C/C(=O)NCCc2ccc(O)c(O)c2)CC1(C)C [(E)-N-(3,4-Dihydroxyphenethyl)-6-((1R,2R)-3,3-dimethyl-2-(3-methylbut-3-enyl)cyclobutyl)hepta-2,6-dienamide (11f)] | 6500 | > 10 | > 10
4 | C=C(C)CC[C@@H]1[C@H](C(=C)CC/C=C/C(=O)NCCCl)CC1(C)C [(E)-N-(2-Chloroethyl)-6-((1R,2R)-3,3-dimethyl-2-(3-methylbut-3-enyl)cyclobutyl)hepta-2,6-dienamide (11c)] | 1430 | – | > 10
5 | C=C1CC/C=C(\C)CC[C@@H]2[C@H]1CC2(C)C [β-humulene] | – | > 10 | > 10
6 | C=C(C)CC[C@@H]1[C@H](C(=C)CC/C=C/C(=O)NCCC)CC1(C)C [(E)-6-((1R,2R)-3,3-Dimethyl-2-(3-methylbut-3-enyl)cyclobutyl)-N-propylhepta-2,6-dienamide (11a)] | 1010 | – | 6.3
7 | C=CCNC(=O)/C=C/CCC(=C)[C@@H]1CC(C)(C)[C@@H]1CCC(=C)C [(E)-N-Allyl-6-((1R,2R)-3,3-dimethyl-2-(3-methylbut-3-enyl)cyclobutyl)hepta-2,6-dienamide (11b)] | 680 | – | 2.7
